We go through 5 molecules from US20120115157A1, “Methods for Screening for Antibiotic Compounds” (Trustees of Dartmouth College, priority 2009, published 2012).

Converted amounts (≈) assume the structure as drawn.

This test deals with S. aureus. The test is described as follows: Minimum Inhibitory Concentration (MIC), inhibition of growth of S. aureus in vitro. Conditions: Staphylococcus aureus. The test is classed as cell-based. An excerpt:
The next step will be to test the drugs for activity in vitro to inhibit growth of bacterial cells and determination of minimum inhibitory concentration (MIC) doses for the drugs. Determining MIC doses is a standard assay in development of antibiotic drugs and methods are well known in the art. For example, MIC can be determined according to the Clinical and Laboratory Standards Institute guidelines.
Once the compounds of the present invention were identified through the MazEF screening assay described above, the activity of the compounds to inhibit growth of S. aureus in vitro was tested using the standard method of determining Minimum Inhibitory Concentrations (MICS). Such methods are well known to those of skill in the art since determining MIC doses is a standard assay in development of antibiotic drugs. For example, MIC values can be determined according to the Clinical and Laboratory Standards Institute guidelines. In Table 1, the MIC values are presented for each of the ten compounds identified through the MazEF screening assay as having potential for antibiotic activity in S. aureus.

The MIC is the smallest concentration in the dilution series that meets the test's criterion for growth inhibition. Low values mean inhibition by little substance, high ones a need for much substance. `CN(C)c1ccc(/C=C2\SC(=S)N(C(Cc3ccccc3)C(=O)O)C2=O)cc1` (centres unmarked) [Compound 1, 2-{5-[4-(dimethylamino)benzylidene]-4-oxo-2-thioxo-1,3-thiazolidin-3-yl}-3-phenylpropanoic acid] gave an MIC of 12.5 µg/mL (≈ 30.3 µM).

Molecule `Cc1ccc(Nc2nc3nonc3nc2N)c(C)c1` [Compound 4, N-(2,4-dimethylphenyl)[1,2,5]oxadiazolo [3,4-b]pyrazine-5,6-diamine] returned an MIC of 12.5 µg/mL (≈ 48.8 µM).

As to `O=C1c2ccccc2-c2onc3ccc(Cl)c1c23` [Compound 5, 5-chloro-6H-anthra[1,9-cd]isoxazol-6-one], the MIC turned out to be 6.25 µg/mL (≈ 24.4 µM).

As for `CCN1CCc2c(sc(NC(=O)Nc3ccc(Cl)cc3)c2C(N)=O)C1` [Compound 9, 2-({[(4-chlorophenyl)amino]carbonyl}amino)-6-ethyl-4,5,6,7-tetrahydrothieno[2,3-c]pyridine-3-carboxamide], the MIC is 100 µg/mL (≈ 264 µM).

Consider `COc1ccc(/C=C\C(=O)C2C(=O)c3ccccc3C2=O)cc1` [Compound 10], for which the MIC came out at 100 µg/mL (≈ 326 µM).
